Source: patent US12479830B2, “Homopiperazinyl and homopiperidinyl quinazolin-4(3H)-one derivatives having multimodal activity against pain” (ESTEVE PHARMACEUTICALS, S.A., priority 2019, dated 2025)

Legend:
Human σ1 receptor = target: T1, Human σ1 receptor (Homo sapiens, UniProt Q99720); assay: Human σ1 receptor radioligand assay ([3H](+)-pentazocine binding); details: binding to the σ1 receptor, expressed as Ki class; + also covers inhibition between 1% and 50%
T1 construct: expressed in transfected cells; host or cells: HEK-293
In short: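 Membranes (7 μg) were incubated with 5 nM [3H](+)-pentazocine in 50 mM Tris-HCl pH 8 for 120 min at 37° C. Non-specific binding was defined with 10 μM haloperidol. Values are % inhibition at 1 or 10 μM or Ki from five concentrations, read by filtration and scintillation counting.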

[1] = target: Human α2δ-1 subunit of Cav2.2 calcium channel (Homo sapiens, UniProt P54289); assay: Human α2δ-1 subunit of Cav2.2 calcium channel assay ([3H]-gabapentin binding); details: binding to the α2δ-1 subunit of voltage-gated calcium channels, expressed as Ki class; + also covers inhibition between 1% and 50%
In short: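 Human α2δ-1 enriched membranes (2.5 μg) incubated 60 min at 27° C. with 15 nM [3H]-gabapentin in 10 mM Hepes-KOH pH 7.4; non-specific binding with 10 μM pregabalin. Filtration binding; % inhibition at 1 or 10 μM, or Ki from five concentrations.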

Chain of Human α2δ-1 subunit of Cav2.2 calcium channel (P54289 25-1103): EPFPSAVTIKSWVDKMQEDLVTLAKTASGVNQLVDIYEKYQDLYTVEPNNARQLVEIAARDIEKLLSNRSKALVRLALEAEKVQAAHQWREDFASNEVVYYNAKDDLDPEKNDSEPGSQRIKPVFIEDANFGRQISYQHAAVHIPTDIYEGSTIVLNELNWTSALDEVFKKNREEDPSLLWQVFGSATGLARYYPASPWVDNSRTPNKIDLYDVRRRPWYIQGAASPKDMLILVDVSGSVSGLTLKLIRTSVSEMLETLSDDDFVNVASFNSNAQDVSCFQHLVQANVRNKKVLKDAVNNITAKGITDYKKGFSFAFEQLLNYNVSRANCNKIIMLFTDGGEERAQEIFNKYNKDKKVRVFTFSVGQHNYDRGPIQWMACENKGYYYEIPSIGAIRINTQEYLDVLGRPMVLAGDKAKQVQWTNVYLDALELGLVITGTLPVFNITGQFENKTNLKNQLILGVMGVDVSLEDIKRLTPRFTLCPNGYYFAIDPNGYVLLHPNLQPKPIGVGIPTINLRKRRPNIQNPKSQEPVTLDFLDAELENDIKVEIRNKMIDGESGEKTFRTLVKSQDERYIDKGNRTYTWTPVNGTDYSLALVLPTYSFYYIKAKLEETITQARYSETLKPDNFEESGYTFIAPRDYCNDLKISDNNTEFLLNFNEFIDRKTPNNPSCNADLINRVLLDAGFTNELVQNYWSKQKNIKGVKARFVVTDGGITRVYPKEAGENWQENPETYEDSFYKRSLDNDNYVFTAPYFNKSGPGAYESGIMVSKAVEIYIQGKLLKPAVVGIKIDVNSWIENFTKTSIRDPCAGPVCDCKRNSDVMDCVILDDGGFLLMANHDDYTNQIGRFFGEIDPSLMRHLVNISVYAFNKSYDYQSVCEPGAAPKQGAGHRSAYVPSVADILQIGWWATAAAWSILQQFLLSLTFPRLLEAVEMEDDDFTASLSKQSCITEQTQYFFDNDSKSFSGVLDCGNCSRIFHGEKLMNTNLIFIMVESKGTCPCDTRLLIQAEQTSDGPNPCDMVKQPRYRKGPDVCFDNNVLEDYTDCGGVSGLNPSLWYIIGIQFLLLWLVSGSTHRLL
T1 sequence (Q99720 whole entry): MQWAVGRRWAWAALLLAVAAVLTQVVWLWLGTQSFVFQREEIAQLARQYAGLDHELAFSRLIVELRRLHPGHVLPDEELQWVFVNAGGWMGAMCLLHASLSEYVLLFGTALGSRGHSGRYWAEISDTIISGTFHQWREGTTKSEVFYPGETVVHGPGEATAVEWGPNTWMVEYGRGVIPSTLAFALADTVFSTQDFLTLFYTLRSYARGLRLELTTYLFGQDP

Structure (SMILES) | Ki (Human σ1 receptor) [nM] | Ki [1] [nM]
CCCC(c1nc2c(Cl)cc(F)cc2c(=O)n1CC)N1CCCN(C)CC1 (stereo not shown) [Example 64, 8-chloro-3-ethyl-6-fluoro-2-(1-(4-methyl-1,4-diazepan-1-yl)butyl)quinazolin-4(3H)-one] | > 1000 | > 5000
CCCC(c1nc2ccc(F)cc2c(=O)n1CC)N1CCCN(C)CC1 (stereo not shown) [Example 21, 3-ethyl-6-fluoro-2-(1-(4-methyl-1,4-diazepan-1-yl)butyl)quinazolin-4(3H)-one] | < 500 | < 500
CCCC(c1nc2ccc(Br)cc2c(=O)n1CC(C)C)N1CCCN(C)CC1 (stereo not shown) [Example 54, 6-bromo-3-isobutyl-2-(1-(4-methyl-1,4-diazepan-1-yl)butyl)quinazolin-4(3H)-one] | 500 to 1000 | < 500
CCC[C@@H](c1nc2ccc(Br)cc2c(=O)n1CC)N1CCCN[C@H](C)C1 [Example 141, 6-bromo-3-ethyl-2-((S)-1-((R)-3-methyl-1,4-diazepan-1-yl)butyl)quinazolin-4(3H)-one] | 500 to 1000 | > 5000
CCC[C@H](c1nc2ccc(Br)cc2c(=O)n1CC)N1CCN(C)C[C@@H](COC)C1 [Example 106, 6-bromo-3-ethyl-2-((R)-1-((R)-6-(methoxymethyl)-4-methyl-1,4-diazepan-1-yl)butyl)quinazolin-4(3H)-one] | > 1000 | < 500
CCC[C@@H](c1nc2ccc(OC)cc2c(=O)n1CC)N1CCCN(C)CC1 [Example 16, (S)-3-ethyl-6-methoxy-2-(1-(4-methyl-1,4-diazepan-1-yl)butyl)quinazolin-4(3H)-one] | > 1000 | > 5000
CCC[C@H](c1nc2ccc(F)cc2c(=O)n1CC)N1CCCN[C@H](C)C1 [Example 143, 3-Ethyl-6-fluoro-2-((R)-1-((R)-3-methyl-1,4-diazepan-1-yl)butyl)quinazolin-4(3H)-one] | < 500 | < 500
CCC[C@H](c1nc2ccc(Br)cc2c(=O)n1CC)N1CCCN(CC)CC1 [Example 153, (R)-6-Bromo-3-ethyl-2-(1-(4-ethyl-1,4-diazepan-1-yl)butyl)quinazolin-4(3H)-one] | < 500 | < 500
CCC[C@@H](c1nc2cc(Cl)c(Cl)cc2c(=O)n1CC)N1CCNC[C@H](C)C1 [Example 111, 6,7-dichloro-3-ethyl-2-((S)-1-((S)-6-methyl-1,4-diazepan-1-yl)butyl)quinazolin-4(3H)-one] | > 1000 | 500 to 5000
CCC[C@H](c1nc2ccc(Br)cc2c(=O)n1CC)N1CCN(C)C[C@H](COC)C1 [Example 105, 6-Bromo-3-ethyl-2-((R)-1-((S)-6-(methoxymethyl)-4-methyl-1,4-diazepan-1-yl)butyl)quin-4 (3H)-one] | > 1000 | 500 to 5000
CCCC(c1nc2ccc(Br)cc2c(=O)n1C)N1CCCN(C)CC1 (stereo not shown) [Example 84, 6-bromo-3-methyl-2-(1-(4-methyl-1,4-diazepan-1-yl)butyl)quinazolin-4(3H)-one] | < 500 | 500 to 5000
CCCC(c1nc2cc(F)c(Br)cc2c(=O)n1CC)N1CCCN(C)CC1 (stereo not shown) [Example 13, 6-bromo-3-ethyl-7-fluoro-2-(1-(4-methyl-1,4-diazepan-1-yl)butyl)quinazolin-4(3H)-one] | < 500 | < 500
CCCC(c1nc2cc(F)c(Br)cc2c(=O)n1CCC)N1CCCN(C)CC1 (stereo not shown) [Example 26, 6-bromo-7-fluoro-2-(1-(4-methyl-1,4-diazepan-1-yl)butyl)-3-propylquinazolin-4(3H)-one] | < 500 | < 500
CCCC(c1nc2cc(Cl)c(Cl)cc2c(=O)n1CC)N1CCCNCC1 (stereo not shown) [Example 91, 2-(1-(1,4-diazepan-1-yl)butyl)-6,7-dichloro-3-ethylquinazolin-4(3H)-one] | 500 to 1000 | < 500
CCC[C@@H](c1nc2ccc(Br)cc2c(=O)n1CC)N1CCN[C@H](C)CC1 [Example 94, 6-bromo-3-ethyl-2-((S)-1-((R)-5-methyl-1,4-diazepan-1-yl)butyl)quinazolin-4(3H)-one] | > 1000 | 500 to 5000

The next lines start with the values.

Ki (Human σ1 receptor) [nM] | Ki [1] [nM] | Structure (SMILES)
< 500 | > 5000 | CCC[C@H](c1nc2ccc(F)cc2c(=O)n1C)N1CCCN(CC)CC1 [Example 217, (R)-2-(1-(4-ethyl-1,4-diazepan-1-yl)butyl)-6-fluoro-3-methylquinazolin-4(3H)-one]
500 to 1000 | < 500 | CCC[C@H](c1nc2cc(F)c(F)cc2c(=O)n1CC)N1CCN[C@H](C)CC1 [Example 241, 3-ethyl-6,7-difluoro-2-((R)-1-((R)-5-methyl-1,4-diazepan-1-yl)butyl)quinazolin-4(3H)-one]
> 1000 | 500 to 5000 | CCC[C@@H](c1nc2ccncc2c(=O)n1CC)N1CCNC[C@@H](C)C1 [Example 167, 3-ethyl-2-((S)-1-((R)-6-methyl-1,4-diazepan-1-yl)butyl)pyrido[4,3-d]pyrimidin-4(3H)-one]
> 1000 | < 500 | CCCC(c1nc2ccncc2c(=O)n1CC)N1CCCNCC1 (stereo not shown) [Example 172, 2-(1-(1,4-diazepan-1-yl)butyl)-3-ethylpyrido[4,3-d]pyrimidin-4(3H)-one]
> 1000 | < 500 | CCCC(c1nc2ncccc2c(=O)n1CC)N1CCCN(C)CC1 (stereo not shown) [Example 180, 3-ethyl-2-(1-(4-methyl-1,4-diazepan-1-yl)butyl)pyrido[2,3-d]pyrimidin-4(3H)-one]
< 500 | < 500 | CCC[C@H](c1nc2ccc(F)c(F)c2c(=O)n1CC)N1CCCN(C)CC1 [Example 233, (R)-3-ethyl-5,6-difluoro-2-(1-(4-methyl-1,4-diazepan-1-yl)butyl)quinazolin-4(3H)-one]
> 1000 | > 5000 | CCC[C@H](c1nc2ncc(Br)cc2c(=O)n1CC)N1CCCN(CC)CC1 [Example 176, 6-bromo-3-ethyl-2-(1-(4-ethyl-1,4-diazepan-1-yl)butyl)pyrido[2,3-d]pyrimidin-4(3H)-one]
< 500 | < 500 | CCC[C@H](c1nc2ccc(C(F)(F)F)cc2c(=O)n1CC)N1CCN[C@@H](C)CC1 [Example 259, 3-ethyl-2-((R)-1-((S)-5-methyl-1,4-diazepan-1-yl)butyl)-6-(trifluoromethyl)quinazolin-4(3H)-one]
< 500 | > 5000 | CCC[C@@H](c1nc2ccc(Br)cc2c(=O)n1CC)N1CCCN(CC)CC1 [Example 154, (S)-6-bromo-3-ethyl-2-(1-(4-ethyl-1,4-diazepan-1-yl)butyl)quinazolin-4(3H)-one]
> 1000 | > 5000 | CCC[C@@H](c1nc2ccncc2c(=O)n1CC)N1CCNC[C@H](C)C1 [Example 166, 3-ethyl-2-((S)-1-((S)-6-methyl-1,4-diazepan-1-yl)butyl)pyrido[4,3-d]pyrimidin-4(3H)-one]
500 to 1000 | < 500 | CCC[C@H](c1nc2ccc(I)cc2c(=O)n1CC)N1CCCN(C)CC1 [Example 213, (R)-3-ethyl-6-iodo-2-(1-(4-methyl-1,4-diazepan-1-yl)butyl)quinazolin-4(3H)-one]
